The target of one experiment is T1, CDK2/CycE (Homo sapiens, UniProt P24941).
T1 construct: GST; purchased ProQinase GmbH (Freiburg, Germany); host or cells: insect cells (Sf9)
The experiment in a line: CDK2/CycE high ATP kinase assay (TR-FRET, Method 2b). The settings on record: 2 mM ATP. The class given is biochemical. Here is the method:
2b. CDK2/CycE High ATP Kinase Assay:
CDK2/CycE-inhibitory activity of compounds of the present invention at 2 mM adenosine-tri-phosphate (ATP) was quantified employing the CDK2/CycE TR-FRET (TR-FRET=Time Resolved Fluorescence Resonance Energy Transfer) assay as described in the following paragraphs.
Recombinant fusion proteins of GST and human CDK2 and of GST and human CycE, expressed in insect cells (Sf9) and purified by Glutathion-Sepharose affinity chromatography, were purchase from ProQinase GmbH (Freiburg, Germany). As substrate for the kinase reaction biotinylated peptide biotin-Ttds-YISPLKSPYKISEG (C-terminus in amid form) was used which can be purchased e.g. from the company JERINI peptide technologies (Berlin, Germany).
For the assay 50 nl of a 100 fold concentrated solution of the test compound in DMSO was pipetted into a black low volume 384 well microtiter plate (Greiner Bio-One, Frickenhausen, Germany), 2 μl of a solution of CDK2/CycE in aqueous assay buffer [50 mM Tris/HCl pH 8.0, 10 mM MgCl2, 1.0 mM dithiothreitol, 0.1 mM sodium ortho-vanadate, 0.01% (v/v) Nonidet-P40 (Sigma)] were added and the mixture was incubated for 15 min at 22° C. to allow pre-binding of the test compounds to the enzyme before the start of the kinase reaction. Then the kinase reaction was started by the addition of 3 μl of a solution ATP (3.33 mM=>final conc. in the 5 μl assay volume is 2 mM) and substrate (1.25 μM=>final conc. in the 5 μl assay volume is 0.75 μM) in assay buffer and the resulting mixture was incubated for a reaction time of 25 min at 22° C. The concentration of CDK2/CycE was adjusted depending of the activity of the enzyme lot and was chosen appropriate to have the assay in the linear range, typical concentrations were in the range of 15 ng/ml. The reaction was stopped by the addition of 5 μl of a solution of TR-FRET detection reagents (0.2 μM streptavidine-XL665 [Cisbio Bioassays, Codolet, France] and 1 nM anti-RB(pSer807/pSer811)-antibody from BD Pharmingen [#558389] and 1.2 nM LANCE EU-W1024 labeled anti-mouse IgG antibody [Perkin-Elmer, product no. AD0077, as an alternative a Terbium-cryptate-labeled anti-mouse IgG antibody from Cisbio Bioassays can be used]) in an aqueous EDTA-solution (100 mM EDTA, 0.2% (w/v) bovine serum albumin in 100 mM HEPES pH 7.5).
The resulting mixture was incubated 1 h at 22° C. to allow the formation of complex between the phosphorylated biotinylated peptide and the detection reagents. Subsequently the amount of phosphorylated substrate was evaluated by measurement of the resonance energy transfer from the Eu-chelate to the streptavidine-XL. Therefore, the fluorescence emissions at 620 nm and 665 nm after excitation at 350 nm were measured in a TR-FRET reader, e.g. a Rubystar (BMG Labtechnologies, Offenburg, Germany) or a Viewlux (Perkin-Elmer). The ratio of the emissions at 665 nm and at […] was taken as the measure for the amount of phosphorylated substrate. The data were normalised (enzyme reaction without inhibitor=0% inhibition, all other assay components but no enzym=100% inhibition).
In general terms: TR-FRET usually uses a lanthanide donor and a delayed reading to cut background.

The test system of the next experiment is HeLa cells. Kind of experiment: Proliferation assay, crystal violet (Method 3). In kind it is cell-based, human. The settings on record: Homo sapiens, 96 h, 4 days, read-out: Inhibition of HeLa cell proliferation IC50. On the procedure: Cultivated tumour cells (HeLa, human cervical tumour cells, ATCC CCL-2; NCI-H460, human non-small cell lung carcinoma cells, ATCC HTB-177; DU 145, hormone-independent human prostate carcinoma cells, ATCC HTB-81; HeLa-MaTu-ADR, multidrug-resistant human cervical carcinoma cells, EPO-GmbH Berlin; Caco-2, human colorectal carcinoma cells, ATCC HTB-37; B16F10, mouse melanoma cells, ATCC CRL-6475) were plated at a density of 5,000 cells/well (DU145, HeLa-MaTu-ADR), 3,000 cells/well (NCI-H460, HeLa), 1,500 cells/well (Caco-2), or 1,000 cells/well (B16F10) in a 96-well multititer plate in 200 μL of their respective growth medium supplemented 10% fetal calf serum. After 24 hours, the cells of one plate (zero-point plate) were stained with crystal violet (see below), while the medium of the other plates was supplemented with the test substances in various concentrations (0 μM, as well as in the range of 0.0001-10 μM; the final concentration of the solvent dimethyl sulfoxide was adjusted to 0.1%) using a Hewlett-Packard HP D300 Digital Dispenser. The cells were incubated for 4 days in the presence of test substances. Cell proliferation was determined by staining the cells with crystal violet: the cells were fixed by adding 20 μl/measuring point of an 11% glutaric aldehyde solution for 15 minutes at room temperature. After three washing cycles of the fixed cells with water, the plates were dried at room temperature. The cells were stained by adding 100 μl/measuring point of a 0.1% crystal violet solution (pH 3.0). After three washing cycles of the stained cells with water, the plates were dried at room temperature. The dye was dissolved by adding 100 μl/measuring point of a 10% acetic acid solution. The extinction was determined by photometry at a wavelength of 595 nm. The change of cell number, in percent, was calculated by normalization of the measured values to the extinction values of the zero-point plate (=0%) and the extinction of the untreated (0 μm) cells (=100%). The IC50 values (inhibitory concentration at 50% of maximal effect) were determined by means of a 4 parameter fit.

As for `CS(=N)(=O)Cc1cc2cc(c1)OCCCCNc1cc(F)ccc1-c1nc(ncc1F)N2` (racemic) [Example 16, (rac)-16,20-difluoro-9-[(S-methylsulfonimidoyl)methyl]-2,3,4,5-tetrahydro-1H-17,13-(azeno)-7,11-(metheno)-6,1,12,14-benzoxatriazacyclononadecine], the IC50 against CDK2/CycE was 227 nM; in the experiment on HeLa cells, 10 nM.

Take `CN1CCCCNc2cc(F)ccc2-c2nc(ncc2F)Nc2cc(CS(C)(=N)=O)cc1c2.O=CO` (racemic) [Example 17, (rac)-16,20-difluoro-6-methyl-9-[(S-methylsulfonimidoyl)methyl]-1,2,3,4,5,6-hexahydro-12H-17,13-(azeno)-11,7-(metheno)-1,6,12,14-benzotetraazacyclononadecine; salt with formic acid]: the IC50 on CDK2/CycE worked out at 622 nM; in the experiment on HeLa cells, 31 nM.

For `C[S+]([O-])Cc1cc2nc(c1)OCCCCCc1cc(F)ccc1-c1cc(ncc1F)N2` (racemic) [Example 19, (rac)-2,19-difluoro-9-[(methylsulfinyl)methyl]-14,15,16,17-tetrahydro-6H,13H-7,11-(azeno)-5,1-(metheno)-12,4,6-benzoxadiazacyclononadecine], the IC50 on CDK2/CycE came to 1410 nM; in the experiment with HeLa cells, 1000 nM.

Turning to `CS(=N)(=O)Cc1cc2nc(c1)OCCCCCc1cc(F)ccc1-c1cc(ncc1F)N2` (racemic) [Example 20, (rac)-2,19-difluoro-9-[(S-methylsulfonimidoyl)methyl]-14,15,16,17-tetrahydro-6H,13H-7,11-(azeno)-5,1-(metheno)-12,4,6-benzoxadiazacyclononadecine], the IC50 against CDK2/CycE is 921 nM; with HeLa cells, 408 nM.

On to `CC(C)(C)OC(=O)N=S(C)(=O)Cc1cc2cc(c1)OCCCCSc1cc(F)ccc1-c1nc(ncc1F)N2` (racemic) [Example 21, (rac)-tert-butyl[{[16,20-difluoro-2,3,4,5-tetrahydro-12H-17,13-(azeno)-11,7-(metheno)-6,1,12,14-benzoxathiadiazacyclononadecin-9-yl]methyl}(methyl)oxido-λ^6-sulfanylidene]carbamate], for which the IC50 was 11900 nM against CDK2/CycE and 327 nM in the experiment with HeLa cells.

Turning to `CS(=N)(=O)Cc1cc2cc(c1)OCCCCSc1cc(F)ccc1-c1nc(ncc1F)N2` (racemic) [Example 22, (rac)-16,20-difluoro-9-[(S-methylsulfonimidoyl)methyl]-2,3,4,5-tetrahydro-12H-17,13-(azeno)-11,7-(metheno)-6,1,12,14-benzoxathiadiazacyclononadecine], the IC50 came to 1100 nM against CDK2/CycE and 102 nM in the experiment with HeLa cells.

Turning to `CSCc1cc2nc(c1)Nc1cc(c(F)cn1)-c1ccc(F)cc1OCCCN2` [Example 1, 15,19-Difluoro-8-[(methylsulfanyl)methyl]-2,3,4,5-tetrahydro-11H-10,6-(azeno)-12,16-(metheno)-1,5,11,13-benzoxatriazacyclooctadecine], the figures for the IC50 on CDK2/CycE and in the experiment with HeLa cells were 531 nM and 28 nM, respectively.

Turning to `CSCc1cc2nc(c1)OCCCCc1cc(F)ccc1-c1cc(ncc1F)N2` [Example 4, 2,18-Difluoro-9-[(methylsulfanyl)methyl]-13,14,15,16-tetrahydro-6H-7,11-(azeno)-5,1-(metheno)-12,4,6-benzoxadiazacyclooctadecine], the IC50 is > 20000 nM at CDK2/CycE and 9280 nM in the experiment with HeLa cells.

With `CSCc1cc2nc(c1)OCCCCCc1cc(F)ccc1-c1cc(ncc1F)N2` [Example 18, 2,19-difluoro-9-[(methylsulfanyl)methyl]-14,15,16,17-tetrahydro-6H,13H-7,11-(azeno)-5,1-(metheno)-12,4,6-benzoxadiazacyclononadecine], the IC50 was > 20000 nM at CDK2/CycE and > 10000 nM in the experiment with HeLa cells.

Source of the values: patent publication US10214542B2, “Modified macrocyclic compounds” (BAYER PHARMA AKTIENGESELLSCHAFT, priority 2015, dated 2019).
